Source: article PMC7606587 (Nuclear medicine and biology, 2020)
Like-named read-outs stand apart in the source and are kept apart here.

System: C4–2B prostate cancer xenografts
Assay type: in vivo, athymic (BALB/c nu/nu) mice
Details: for blood clearance (in words): 1 and 4 h pi
[1] = C4–2B xenograft, 4 h pi, tail vein injection
[2] = C4–2B xenograft, time point not stated at the place (study at 1, 4, 24 h pi)

Row | tumor concentration relative to [131I]16a (C4–2B xenograft) | tumor concentration [1] | tumor concentration [2] | blood clearance (in words) | highest spleen concentration (1 h pi) [%ID/g] | tumor concentration relative to blood concentration (1 h pi) [×] | kidney concentration (4 h pi) | tumor concentration relative to blood concentration (4 h pi) [×] | kidney concentration (4 h pi, listed as 16a) [%ID/g] | tumor concentration (C4–2B xenograft, 1 h pi) | tumor concentration (C4–2B xenograft, at 1 and 4 h pi) [%ID/g] | concentration in all the tissues except for the intestine (1 h pi) | intestine concentration (1 h pi) [%ID/g] | tumor uptake / tumor targeting (in words) (C4–2B xenograft) | Substance
1 | ~ 4 × | ~ 15 %ID/g | 14–15 %ID/g |  |  |  |  |  |  |  |  |  |  |  | 3-B10H9-dioxa-5-LuG-dPEG4-Ph-Lys-Ac [[^131I]16b]
2 |  | ~ 4 %ID/g | ~ 4 %ID/g | rapid blood clearance | 9 | 2.3 | ~ 94 %ID/g | 4.7 | 94 | ~ 4 % ID/g | < 5 |  |  |  | 3-B10H9-dioxa-5-LuG-dPEG12-Ph-Lys-Ac [[^131I]16a]
3 |  |  |  | rapid blood clearance |  |  |  |  |  |  |  | lower than 2 % ID/g | 12 | essentially no tumor uptake | 3-B10H9-dioxa-5-dPEG12CO2H-Ph-Lys-Ac [[^125I]9a]
